Results: patent publication US9725436B2, “Cytochrome P450 inhibitors and their method of use” (CORTENDO AB (PUBL), priority 2013, dated 2017)

What was measured:
[1] = Pharmacokinetic study in the guinea pig, 10 mg/kg oral dosing; assay type: in vivo; parameters: DNAUC(0-inf): unit not given beside the values; details: for DNAUC(0-inf): dose-normalised AUC; for AUC(0-inf) / Cmax / half-life / AUC / MRT: in vivo; for AUC: read-out: AUC0_last; for MRT: read-out: MRT0_last
Protocol: Pharmacokinetic studies in the guinea pig were run using 1 mg/kg IV dosing (20% DMA, 40% TEG, 40% water) and 10 mg/kg oral dosing (2% Tween-80, 98% HPMC (1% water)).

recombinant CYP-17 = recombinant CYP-17 (Homo sapiens (Human), UniProt P05093); assay: Cyp17 assay protocol (3H-acetic acid release from [21-3H] 17α-hydroxyl-Pregnenolone); assay type: cell-based; details: AD293 cells over-expressing recombinant CYP-17
Protocol: Cyp17 assay protocol: AD293 cells that stably over-express recombinant CYP-17 were seeded in 96 well plates coated with poly D-lysine (15,000 cell per well) and incubated at 37° C. for 24 hours in Dulbecco's Modified Eagle Medium (DMEM) with Fetal Bovine Serum (FBS) that is stripped of hormones by charcoal treatment. The media is then removed, the cells are washed once with Phosphate buffer saline solution, and 50 μL Dulbecco's Modified Eagle Medium (DMEM) with Fetal Bovine Serum (FBS) that is stripped of hormones by charcoal treatment is added. Compounds of the disclosure are then added to the wells in eight concentration spanning 10 μM to 4.5 nM, and the plates are incubated for an additional 60 minutes at 37° C. [21-^3H] 17α-hydroxyl-Pregnenolone is then added (50 nCi per well, 31.25 nM) and the plates are incubated for an additional 4 hours at 37° C. The media is then collected, 200 μL of chloroform is added, and the mixture is shaken for 1 hour. The aqueous layer is then separated and analyzed for the presence of ^3H-acetic acid using a Perkin Elmer Topcount NXT to determine IC50s of the compounds of the disclosure.

recombinant CYP-11 = recombinant CYP-11 (Homo sapiens (Human), UniProt P15538); assay: Cyp11 assay protocol (cortisol formation from 11-deoxycortisol, LC/MS); assay type: cell-based; details: AD293 cells over-expressing recombinant CYP-11
Protocol: (§1) Cyp11 assay protocol: AD293 cells that stably over-express recombinant CYP-11 were seeded in 96 well plates coated with poly D-lysine (15,000 cell per well) and incubated at 37° C. for 24 hours in Dulbecco's Modified Eagle Medium (DMEM) with Fetal Bovine Serum (FBS) that is stripped of hormones by charcoal treatment. The media is then removed, the cells are washed once with Phosphate buffer saline solution, and 50 μL Dulbecco's Modified Eagle Medium (DMEM) with Fetal Bovine Serum (FBS) that is stripped of hormones by charcoal treatment is added. Compounds of the disclosure are then added to the wells in eight concentration spanning 10 μM to 4.5 nM, and the plates are incubated for an additional 60 minutes at 37° C. 11-deoxycortisol is then added (2.0 μM) and the plates are incubated for an additional 12 hours at 37° C. After incubation, 50 uL of the supernatant (medium) is transferred into a fresh plate and 150 uL of an acetonitrile solution containing 200 ng/ml of Telmisartan is added.

recombinant CYP-21 = recombinant CYP-21 (Homo sapiens (Human), UniProt P08686); assay: Cyp21 assay protocol (11-deoxycortisol formation from 17α-OH Progesterone, LC/MS); assay type: cell-based; details: AD293 cells over-expressing recombinant CYP-21
Protocol: as §1, with “Cyp21” for “Cyp11”, “CYP-21” for “CYP-11”, “(10,000” for “(15,000”, “17α-OH Progesterone” for “11-deoxycortisol”, “(1.0” for “(2.0”, “45 minutes” for “12 hours”

recombinant CYP-11, sequence (P15538 25-503): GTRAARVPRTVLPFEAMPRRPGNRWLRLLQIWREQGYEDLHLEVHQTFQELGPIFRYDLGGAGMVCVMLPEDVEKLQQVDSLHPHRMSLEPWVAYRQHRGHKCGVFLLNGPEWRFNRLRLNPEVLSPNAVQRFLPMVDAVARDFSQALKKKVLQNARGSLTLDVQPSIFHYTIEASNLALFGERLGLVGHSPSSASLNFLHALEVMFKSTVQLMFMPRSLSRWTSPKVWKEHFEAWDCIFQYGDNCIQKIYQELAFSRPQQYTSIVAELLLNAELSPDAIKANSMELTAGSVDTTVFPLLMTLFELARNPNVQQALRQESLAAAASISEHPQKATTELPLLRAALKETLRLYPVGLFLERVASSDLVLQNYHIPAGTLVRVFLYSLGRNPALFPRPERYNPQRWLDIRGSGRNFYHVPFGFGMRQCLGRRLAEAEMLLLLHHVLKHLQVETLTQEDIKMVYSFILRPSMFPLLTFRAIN
recombinant CYP-17, sequence (P05093 whole entry, species assumed): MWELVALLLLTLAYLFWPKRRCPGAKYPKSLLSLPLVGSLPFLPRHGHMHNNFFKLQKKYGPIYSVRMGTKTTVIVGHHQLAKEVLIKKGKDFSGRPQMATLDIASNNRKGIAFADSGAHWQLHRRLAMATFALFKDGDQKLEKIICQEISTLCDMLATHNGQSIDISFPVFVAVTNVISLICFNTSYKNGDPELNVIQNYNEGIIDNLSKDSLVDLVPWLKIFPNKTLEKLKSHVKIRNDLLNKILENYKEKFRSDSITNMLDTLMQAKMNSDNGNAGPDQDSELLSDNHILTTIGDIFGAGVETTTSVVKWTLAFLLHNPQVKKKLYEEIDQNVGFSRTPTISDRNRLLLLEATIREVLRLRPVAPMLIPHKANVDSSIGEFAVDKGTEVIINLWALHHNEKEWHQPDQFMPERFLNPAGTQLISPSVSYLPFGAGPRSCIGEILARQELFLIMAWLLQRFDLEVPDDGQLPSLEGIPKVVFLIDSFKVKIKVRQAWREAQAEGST
recombinant CYP-21, sequence (P08686 whole entry, species assumed): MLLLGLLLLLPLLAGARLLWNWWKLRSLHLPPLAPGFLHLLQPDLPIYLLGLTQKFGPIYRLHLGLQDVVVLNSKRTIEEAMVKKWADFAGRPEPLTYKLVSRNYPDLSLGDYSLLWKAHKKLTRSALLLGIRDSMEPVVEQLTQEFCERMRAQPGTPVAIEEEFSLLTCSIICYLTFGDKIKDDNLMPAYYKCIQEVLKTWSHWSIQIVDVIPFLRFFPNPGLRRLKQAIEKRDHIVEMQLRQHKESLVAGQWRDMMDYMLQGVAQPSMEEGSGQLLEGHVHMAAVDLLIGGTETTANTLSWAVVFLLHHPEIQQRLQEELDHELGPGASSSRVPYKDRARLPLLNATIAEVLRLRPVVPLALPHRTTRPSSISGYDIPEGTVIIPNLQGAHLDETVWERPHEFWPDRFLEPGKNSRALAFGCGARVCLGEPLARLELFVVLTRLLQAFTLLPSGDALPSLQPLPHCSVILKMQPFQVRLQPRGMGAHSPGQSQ

IC50 (recombinant CYP-17) [µM]	IC50 (recombinant CYP-11) [µM]	IC50 (recombinant CYP-21) [µM]	Compound	further results
0.135	0.14	–	CC(=O)N1CCN(c2ccc(/C=C/c3cc(Cl)cc(COc4cccnc4)c3)cc2)CC1 [Example 26]	–
0.24	0.37	3.3	CC(=O)N1CCN(c2ccc(/C=C/c3cc(Cl)cc(C(O)(c4cccnc4)C(C)C)c3)cc2)CC1 (stereo not drawn) [Example 29]	–
0.62	–	–	CC(=O)N1CCN(c2ccc(/C=C/c3cc(Cl)cc(-c4cccnc4)c3)cc2)CC1 [Example 32]	–
0.007	0.22	3.3	O=S(=O)(c1cccnc1)N1CCN(c2ccc(/C=C/c3cc(F)cc(-c4ccncc4)c3)cc2)CC1 [Example 33]	–
0.008	1.3	1.01	CCOC(=O)CNC(=O)N1CCN(c2ccc(/C=C/c3cc(F)cc(-c4ccncc4)c3)cc2)CC1 [Example 34]	–
0.005	0.2	0.52	CCS(=O)(=O)N1CCN(c2ccc(/C=C/c3cc(F)cc(-c4ccncc4)c3)cc2)CC1 [Example 36]	–
0.005	0.054	0.77	Fc1cc(/C=C/c2ccc(N3CCN(CC4CC4)CC3)cc2)cc(-c2ccncc2)c1 [Example 38]	–
0.005	1.5	0.316	O=S(=O)(N1CCN(c2ccc(/C=C/c3cc(F)cc(-c4ccncc4)c3)cc2)CC1)C(F)(F)F [Example 39]	–
0.003	–	1.2	O=S(=O)(C1CC1)N1CCN(c2ccc(CCc3cc(F)cc(-c4ccncc4)c3)cc2)CC1 [Example 41]	–
0.004	–	1	CC(C)S(=O)(=O)N1CCN(c2ccc(CCc3cc(F)cc(-c4ccncc4)c3)cc2)CC1 [Example 42]	–
0.002	0.33	1.6	CCS(=O)(=O)N1CCN(c2ccc(CCc3cc(F)cc(-c4ccncc4)c3)cc2)CC1 [Example 44]	–
0.0165	0.183	2.8	O=S(=O)(N1CCN(c2ccc(CCc3cc(F)cc(-c4ccncc4)c3)cc2)CC1)C(F)(F)F [Example 45]	–
0.0035	0.25	0.073	CCOC(=O)CNC(=O)NC1CCN(c2ccc(/C=C/c3cc(Cl)cc(Cn4ccnc4)c3)cc2)CC1 [Example 47]	–

More lines, now with the values behind:

Compound	IC50 (recombinant CYP-17) [µM]	IC50 (recombinant CYP-11) [µM]	IC50 (recombinant CYP-21) [µM]	further results
CC(=O)N1CCN(c2ccc(/C=C/c3cc(F)cc(-c4ccncc4)c3)cc2)CC1	–	–	–	AUCExtra [1]: 43.93%; DNAUC(0-inf) [1]: 823.1; AUC(0-inf) [1]: 14900 ng·h/mL; Cmax [1]: 1020 ng/mL; half-life [1]: 6 h; AUC [1]: 8230 ng·h/mL; MRT [1]: 5.56 h
N#Cc1cccc(C(=O)N2CCN(c3ccc(/C=C/c4cc(Cl)cc(Cn5ccnc5)c4)cc3)CC2)c1 [Example 18]	0.022	0.004	–	–
Clc1cc(/C=C/c2ccc(N3CCN(CC4CC4)CC3)cc2)cc(Cn2ccnc2)c1 [Example 19]	0.017	0.011	0.585	–
CCOC(=O)CNC(=O)N1CCN(c2ccc(/C=C/c3cc(Cl)cc(Cn4ccnc4)c3)cc2)CC1 [Example 20]	0.041	0.027	0.36	–
O=S(=O)(c1cccnc1)N1CCN(c2ccc(/C=C/c3cc(Cl)cc(Cn4ccnc4)c3)cc2)CC1 [Example 21]	0.017	0.004	1.38	–
O=C(C1CC1)N1CCN(c2ccc(/C=C/c3cc(Cl)cc(Cn4ccnc4)c3)cc2)CC1 [Example 22]	0.048	0.019	1.4	–
N#Cc1cccc(CN2CCN(c3ccc(/C=C/c4cc(Cl)cc(Cn5ccnc5)c4)cc3)CC2)c1 [Example 23]	0.025	0.007	0.285	–
Fc1cc(/C=C/c2ccc(Br)cc2)cc(-c2ccncc2)c1 [Example 24]	0.042	–	2.6	–
Fc1cc(/C=C/c2ccc(-c3ccncc3)cc2)cc(-c2ccncc2)c1 [Example 25]	0.011	3.7	0.85	–
CC(=O)N1CCN(c2ccc(/C=C/c3cc(F)cc(-c4cccnc4)c3)cc2)CC1 [Example 27]	0.61	–	–	–
CC(=O)N1CCN(c2ccc(/C=C/c3cc(Cl)cc(Cc4cccnc4)c3)cc2)CC1 [Example 28]	0.035	0.18	–	–
CC(=O)N1CCN(c2ccc(/C=C/c3cc(Cl)cc(C(=C(C)C)c4cccnc4)c3)cc2)CC1 [Example 30]	0.21	1.8	2.4	–
CC(=O)N1CCN(c2ccc(/C=C/c3cc(Cl)cc(-c4ccncc4)c3)cc2)CC1 [Example 31]	0.005	–	1.1	–
O=S(=O)(C1CC1)N1CCN(c2ccc(/C=C/c3cc(F)cc(-c4ccncc4)c3)cc2)CC1 [Example 35]	0.005	0.14	0.393	–
Fc1cc(CCc2ccc(-c3ccncc3)cc2)cc(-c2ccncc2)c1 [Example 37]	0.19	–	0.49	–
CC(C)S(=O)(=O)N1CCN(c2ccc(/C=C/c3cc(F)cc(-c4ccncc4)c3)cc2)CC1 [Example 40]	0.001	–	0.19	–
CCOC(=O)CNC(=O)N1CCN(c2ccc(CCc3cc(F)cc(-c4ccncc4)c3)cc2)CC1 [Example 43]	0.007	0.16	–	–
CC(C)=C(c1cccnc1)c1cc(Cl)cc(/C=C/c2ccc(-c3ccncc3)cc2)c1 [Example 46]	0.3	–	–	–
O=S(=O)(C1CC1)N1CCN(c2ccc(/C=C/c3cc(F)cc(-c4ccncc4)c3)cc2)CC1 [drawing 724]	–	–	–	DNAUC(0-inf) [1]: 160; Cmax [1]: 172 ng/mL; AUC [1]: 1600 ng·h/mL; MRT [1]: 7 h
CCS(=O)(=O)N1CCN(c2ccc(/C=C/c3cc(F)cc(-c4ccncc4)c3)cc2)CC1 [drawing 725]	–	–	–	AUCExtra [1]: 18.25%; DNAUC(0-inf) [1]: 330.1; AUC(0-inf) [1]: 4190 ng·h/mL; Cmax [1]: 540 ng/mL; half-life [1]: 4.8 h; AUC [1]: 3300 ng·h/mL; MRT [1]: 5.54 h
O=S(=O)(N1CCN(c2ccc(/C=C/c3cc(F)cc(-c4ccncc4)c3)cc2)CC1)C(F)(F)F [drawing 726]	–	–	–	AUCExtra [1]: 25.87%; DNAUC(0-inf) [1]: 164.6; AUC(0-inf) [1]: 2450 ng·h/mL; Cmax [1]: 271 ng/mL; half-life [1]: 5.3 h; AUC [1]: 1650 ng·h/mL; MRT [1]: 5.01 h
